Values quoted from earlier work, collected in patent publication US20260263483A1, “LOW DOSE THERAPEUTIC SUPPLEMENT TO MODULATE CYTOKINES” (VIRBAC CORPORATION, priority 2023, published 2026).
Like-named read-outs stand apart in the source and are kept apart here.

Assays:
[1] = system: hepatic stellate cells (HSCs)
diabetic rats [2] = details: 60 mg/kg p.o., five weeks
TGF-β1 = details: Balb/c 3T3 cells
[3] = rats, administrated orally
diabetic rats [4] = system: diabetic rats
Wistar albino rats = details: gentamicin-induced renal damage, oral 2, 5 and 10 mg/kg in 14% DMSO

Q: For C=C(C)[C@@H]1CC[C@]2(CO)CC[C@]3(C)[C@H](CC[C@@H]4[C@@]5(C)CC[C@H](O)C(C)(C)[C@@H]5CC[C@]43C)[C@@H]12 [betulin], which “ethanol-induced activation of hepatic stellate cells” value [1] is on record?
A: inhibited

Q: For CC1(C)CC[C@]2(C(=O)O)CC[C@]3(C)C(=CC[C@@H]4[C@@]5(C)CC[C@H](O)C(C)(C)[C@@H]5CC[C@]43C)[C@@H]2C1 [oleanolic acid], which kidney function (diabetic rats [2]) is on record?
A: ameliorates kidney function

Q: What about the “expression of cytokines and collagen” value (silicotic rats) of the same compound?
A: decrease the expression of cytokines and collagen

Q: For C[C@H]1[C@H](C)CC[C@]2(C(=O)O)CC[C@]3(C)C(=CC[C@@H]4[C@@]5(C)CC[C@H](O)C(C)(C)C5CC[C@]43C)[C@H]12 (some centres unmarked) [ursolic acid], which “concentration that inhibits the specific binding of TGF-β 1 by 50%” value (TGF-β1) is on record?
A: 3.0 µg/mL

Q: And the “ingested ursolic acid recovered in plasma” value [3]?
A: about 0.6%

Q: What about the “protective effects on diabetic rats” value (diabetic rats [4]; high-dose, 50 mg/kg) of the same compound?
A: significant protective effects

Q: And the “protective effects on diabetic rats” value (diabetic rats [4]; low-dose, 25 mg/kg)?
A: significant protective effects

Q: What about the reno-protective effect (Wistar albino rats) of the same compound?
A: reno-protective effect
